Source: article PMC11240878, “Synthesis, enzyme inhibition assay, and molecular modeling study of novel pyrazolines linked to 4-methylsulfonylphenyl scaffold: antitumor activity and cell cycle analysis” (RSC Advances, 2024)

Columns and labels:
MCF7 = assay: NCI single-dose GI%, breast; format: cell-based, human; settings: 10.0 μM in one dose
HL-60(TB) = assay: NCI single-dose GI%, leukemia; format: cell-based, human; settings: 10.0 μM in one dose
CAKI-1 = assay: NCI single-dose GI%, renal; format: cell-based, human; settings: CAKI-1, renal; 10.0 μM in one dose
MDA-MB-231/ATCC = assay: NCI single-dose GI%, breast; format: cell-based, human; settings: 10.0 μM in one dose
SK-MEL-2 = assay: NCI single-dose GI%, melanoma; format: cell-based, human; settings: SK-MEL-2, melanoma; 10.0 μM in one dose
MDA-MB-468 = assay: NCI single-dose GI%, breast; format: cell-based, human; settings: MDA-MB-468, breast; 10.0 μM in one dose
EKVX = assay: NCI single-dose GI%, NSC lung; format: cell-based, human; settings: 10.0 μM in one dose
NCI-H522 = assay: NCI single-dose GI%, NSC lung; format: cell-based, human; settings: 10.0 μM in one dose
OVCAR-4 = assay: NCI single-dose GI%, ovarian; format: cell-based, human; settings: OVCAR-4, ovarian; 10.0 μM in one dose
SNB-75 = assay: NCI single-dose GI%, CNS; format: cell-based, human; settings: SNB-75, CNS; 10.0 μM in one dose
NCI-H226 = assay: NCI single-dose GI%, NSC lung; format: cell-based, human; settings: 10.0 μM in one dose
HOP-62 = assay: NCI single-dose GI%, NSC lung; format: cell-based, human; settings: HOP-62, NSC lung; 10.0 μM in one dose
KM12 = assay: NCI single-dose GI%, colon; format: cell-based, human; settings: 10.0 μM in one dose
T-47D = assay: NCI single-dose GI%, breast; format: cell-based, human; settings: 10.0 μM in one dose
SK-MEL-5 = assay: NCI single-dose GI%, melanoma; format: cell-based, human; settings: SK-MEL-5, melanoma; 10.0 μM in one dose
K-562 = assay: NCI single-dose GI%, leukemia; format: cell-based, human; settings: K-562, leukemia; 10.0 μM in one dose
MOLT-4 = assay: NCI single-dose GI%, leukemia; format: cell-based, human; settings: MOLT-4, leukemia; 10.0 μM in one dose
HCT-116 = assay: NCI single-dose GI%, colon; format: cell-based, human; settings: HCT-116, colon; 10.0 μM in one dose
PC-3 = assay: NCI single-dose GI%, prostate; format: cell-based, human; settings: PC-3, prostate; 10.0 μM in one dose
UO-31 = assay: NCI single-dose GI%, renal; format: cell-based, human; settings: UO-31, renal; 10.0 μM in one dose
59 cancer cell lines = assay: NCI 59 cancer cell line panel, single dose; format: cell-based, human; settings: 10 μM single dose; for MG% (mean growth percent): 59 cell lines
OVCAR-8 = assay: NCI single-dose GI%, ovarian; format: cell-based, human; settings: OVCAR-8, ovarian; 10.0 μM in one dose
TK-10 = assay: NCI single-dose GI%, renal; format: cell-based, human; settings: TK-10, renal; 10.0 μM in one dose
A549/ATCC = assay: NCI single-dose GI%, NSC lung; format: cell-based, human; settings: 10.0 μM in one dose
BT-549 = assay: NCI single-dose GI%, breast; format: cell-based, human; settings: BT-549, breast; 10.0 μM in one dose
NCI-H322M = assay: NCI single-dose GI%, NSC lung; format: cell-based, human; settings: 10.0 μM in one dose
HT29 = assay: NCI single-dose GI%, colon; format: cell-based, human; settings: 10.0 μM in one dose
U251 = assay: NCI single-dose GI%, CNS; format: cell-based, human; settings: 10.0 μM in one dose
SK-OV-3 = assay: NCI single-dose GI%, ovarian; format: cell-based, human; settings: SK-OV-3, ovarian; 10.0 μM in one dose
UACC-257 = assay: NCI single-dose GI%, melanoma; format: cell-based, human; settings: UACC-257, melanoma; 10.0 μM in one dose
SR = assay: NCI single-dose GI%, leukemia; format: cell-based, human; settings: 10.0 μM in one dose
MALME-3M = assay: NCI single-dose GI%, melanoma; format: cell-based, human; settings: 10.0 μM in one dose
SF-268 = assay: NCI single-dose GI%, CNS; format: cell-based, human; settings: SF-268, CNS; 10.0 μM in one dose
A498 = assay: NCI single-dose GI%, renal; format: cell-based, human; settings: 10.0 μM in one dose
COLO 205 = assay: NCI single-dose GI%, colon; format: cell-based, human; settings: COLO 205, colon; 10.0 μM in one dose
HCT-15 = assay: NCI single-dose GI%, colon; format: cell-based, human; settings: HCT-15, colon; 10.0 μM in one dose

Row | SMILES | melting point [°C] | GI% (MCF7) [%] | GI% (HL-60(TB)) [%] | GI% (CAKI-1) [%] | GI% (MDA-MB-468) [%] | GI% (EKVX) [%] | GI% (NCI-H522) [%] | GI% (SNB-75) [%] | GI% (NCI-H226) [%] | GI% (HOP-62) [%] | GI% (T-47D) [%] | GI% (K-562) [%] | GI% (MOLT-4) [%] | GI% (HCT-116) [%] | GI% (PC-3) [%] | GI% (UO-31) [%] | PCE (positive cytotoxic effect: ratio of cell lines with growth inhibition >10% to total cell lines) (59 cancer cell lines) | MG% (mean growth percent) (59 cancer cell lines) [%] | GI% (A549/ATCC) [%] | GI% (SK-OV-3) [%] | further results
1 | COc1ccc(C2=NN(C(=O)c3ccc(S(C)(=O)=O)cc3)C(c3ccccc3)C2)c(OC)c1 (stereo not drawn) [Compound 18n, (3-(2,4-Dimethoxyphenyl)-5-phenyl-4,5-dihydro-1H-pyrazol-1-yl)(4-(methylsulfonyl)phenyl)methanone] | 216 to 218 | 65 | 55 | 15 | 36 | 28 | 20 | 15 | 14 | 20 | 14 | 26 | 38 | 18 | 15 | 24 | 20/59 | 93.24 | – | – | GI% (MDA-MB-231/ATCC): 12%; GI% (SK-MEL-2): 18%; GI% (OVCAR-4): 12%; GI% (KM12): 12%; GI% (SK-MEL-5): 21%
2 | CS(=O)(=O)c1ccc(C(=O)N2N=C(c3ccc(F)cc3)CC2c2ccccc2)cc1 (stereo not drawn) [Compound 18d, (3-(4-Fluorophenyl)-5-phenyl-4,5-dihydro-1H-pyrazol-1-yl)(4-(methylsulfonyl)phenyl)methanone] | 311 to 313 | – | 57 | 14 | – | 16 | 43 | – | – | 29 | 17 | 32 | 37 | – | – | 27 | 18/59 | 93.02 | 24 | 13 | GI% (OVCAR-8): 15%; GI% (TK-10): 12%; GI% (BT-549): 15%; GI% (NCI-H322M): 14%; GI% (HT29): 14%; GI% (U251): 17%; GI% (UACC-257): 37%
3 | CS(=O)(=O)c1ccc(C(=O)N2N=C(c3ccccc3)CC2c2ccc3c(c2)OCO3)cc1 (stereo not drawn) [Compound 18m, (5-(Benzo[d][1,3]dioxol-5-yl)-3-phenyl-4,5-dihydro-1H-pyrazol-1-yl)(4-(methylsulfonyl)phenyl)methanone] | 155 to 157 | 16 | 63 | – | – | – | 13 | 12 | 11 | 17 | 22 | 40 | 48 | 18 | 15 | 34 | 18/59 | 91.96 | 20 | 16 | GI% (BT-549): 14%; GI% (A498): 14%; GI% (COLO 205): 19%; GI% (HCT-15): 14%

More lines, main results first:

Row | melting point [°C] | SMILES | GI% (MCF7) [%] | GI% (HL-60(TB)) [%] | GI% (CAKI-1) [%] | GI% (MDA-MB-468) [%] | GI% (EKVX) [%] | GI% (NCI-H522) [%] | GI% (SNB-75) [%] | GI% (NCI-H226) [%] | GI% (HOP-62) [%] | GI% (T-47D) [%] | GI% (K-562) [%] | GI% (MOLT-4) [%] | GI% (HCT-116) [%] | GI% (PC-3) [%] | GI% (UO-31) [%] | PCE (positive cytotoxic effect: ratio of cell lines with growth inhibition >10% to total cell lines) (59 cancer cell lines) | MG% (mean growth percent) (59 cancer cell lines) [%] | GI% (A549/ATCC) [%] | GI% (SK-OV-3) [%] | further results
4 | 259 to 261 | CS(=O)(=O)c1ccc(C(=O)N2N=C(c3ccccc3)CC2c2ccccc2)cc1 (stereo not drawn) [Compound 18a, (3,5-Diphenyl-4,5-dihydro-1H-pyrazol-1-yl)(4-(methylsulfonyl)phenyl)methanone] | – | 32 | – | – | 11 | 18 | – | 11 | – | – | 19 | 32 | – | – | 12 | 11/59 | 98.11 | 18 | – | GI% (SR): 13%; GI% (UACC-257): 14%; GI% (MALME-3M): 11%
5 | 169 to 171 | COc1ccc(C2=NN(C(=O)c3ccc(S(C)(=O)=O)cc3)C(c3ccc(OC)c(OC)c3)C2)c(OC)c1 (stereo not drawn) [Compound 18p, (3-(2,4-Dimethoxyphenyl)-5-(3,4-dimethoxyphenyl)-4,5-dihydro-1H-pyrazol-1-yl)(4-(methylsulfonyl)phenyl)methanone] | – | 31 | – | 13 | – | 13 | – | 15 | 26 | 25 | 23 | – | 17 | – | 25 | 11/59 | 97.33 | – | 16 | GI% (SF-268): 11%
